Reference: ChEMBL document CHEMBL4052645, “Discovery of potent and efficacious pyrrolopyridazines as dual JAK1/3 inhibitors” (Bioorg Med Chem Lett, 2017)

Key:
[1] = target: Ribosomal protein S6 kinase alpha-6 (Homo sapiens) (UniProt Q9UK32); assay: Inhibition of wild-type human partial length C-terminal RSK4 kinase domain 2 (I401 to Y711 residues) expressed in bacterial expression system assessed as residual activity at 50 nM by Kinomescan method relative to control
[2] = target: Mitogen-activated protein kinase 7 (Homo sapiens) (UniProt Q13164); assay: Inhibition of wild-type human partial length ERK5 (M1 to A409 residues) expressed in bacterial expression system assessed as residual activity at 50 nM by Kinomescan method relative to control
[3] = target: Dual specificity protein kinase CLK1 (Homo sapiens) (UniProt P49759); assay: Inhibition of wild-type human full length CLK1 (M1 to I484 residues) expressed in bacterial expression system assessed as residual activity at 50 nM by Kinomescan method relative to control
[4] = target: Serine/threonine-protein kinase Nek1 (Homo sapiens) (UniProt Q96PY6); assay: Inhibition of wild-type human partial length NEK1 (M1 to K278 residues) expressed in bacterial expression system assessed as residual activity at 50 nM by Kinomescan method relative to control
[5] = target: TGF-beta receptor type-1 (Homo sapiens) (UniProt P36897); assay: Inhibition of wild-type human partial length TGFBR1 (D179 to M503 residues) expressed in bacterial expression system assessed as residual activity at 50 nM by Kinomescan method relative to control
[6] = target: Proto-oncogene tyrosine-protein kinase Src (Homo sapiens) (UniProt P12931); assay: Inhibition of wild-type human partial length SRC (L240 to L536 residues) expressed in bacterial expression system assessed as residual activity at 50 nM by Kinomescan method relative to control
[7] = target: Bone morphogenetic protein receptor type-1B (Homo sapiens) (UniProt O00238); assay: Inhibition of wild-type human partial length BMPR1B (D178 to L502 residues) expressed in mammalian expression system assessed as residual activity at 50 nM by Kinomescan method relative to control
[8] = test system: Phosphatidylinositol 4,5-bisphosphate 3-kinase catalytic subunit alpha isoform (Homo sapiens), P42336 [E542K]; assay: Inhibition of human partial length PI3KCA E542K mutant (R108 to N1068 residues) expressed in mammalian expression system assessed as residual activity at 50 nM by Kinomescan method relative to control
[9] = target: Serine/threonine-protein kinase Nek2 (Homo sapiens) (UniProt P51955); assay: Inhibition of wild-type human partial length NEK2 (M1 to K309 residues) expressed in bacterial expression system assessed as residual activity at 50 nM by Kinomescan method relative to control
[10] = target: Serine/threonine-protein kinase TAO2 (Homo sapiens) (UniProt Q9UL54); assay: Inhibition of wild-type human partial length TAO2 (M1 to A320 residues) expressed in mammalian expression system assessed as residual activity at 50 nM by Kinomescan method relative to control
[11] = target: Cyclin-dependent kinase 15 (Homo sapiens) (UniProt Q96Q40); assay: Inhibition of wild-type human full length PFTAIRE2 (M1 to W384 residues) expressed in bacterial expression system assessed as residual activity at 50 nM by Kinomescan method relative to control
[12] = target: Dual specificity mitogen-activated protein kinase kinase 3 (Homo sapiens) (UniProt P46734); assay: Inhibition of wild-type human full length MAP2K3 (M1 to S318 residues) expressed in mammalian expression system assessed as residual activity at 50 nM by Kinomescan method relative to control
[13] = target: Mitogen-activated protein kinase 11 (Homo sapiens) (UniProt Q15759); assay: Inhibition of wild-type human full length p38-beta (M1 to Q364 residues) expressed in bacterial expression system assessed as residual activity at 50 nM by Kinomescan method relative to control
[14] = target: Megakaryocyte-associated tyrosine-protein kinase (Homo sapiens) (UniProt P42679); assay: Inhibition of wild-type human full length CTK (M43 to P508 residues) expressed in mammalian expression system assessed as residual activity at 50 nM by Kinomescan method relative to control
[15] = target: Serine/threonine-protein kinase TAO3 (Homo sapiens) (UniProt Q9H2K8); assay: Inhibition of wild-type human partial length TAO3 (M1 to T316 residues) expressed in mammalian expression system assessed as residual activity at 50 nM by Kinomescan method relative to control
[16] = target: Phosphatidylinositol 5-phosphate 4-kinase type-2 gamma (Homo sapiens) (UniProt Q8TBX8); assay: Inhibition of wild-type human partial length PIP5K2C (M1 to A421 residues) expressed in mammalian expression system assessed as residual activity at 50 nM by Kinomescan method relative to control
[17] = target: Ephrin type-A receptor 8 (Homo sapiens) (UniProt P29322); assay: Inhibition of wild-type human partial length EPHA8 (Q608 to C920 residues) expressed in bacterial expression system assessed as residual activity at 50 nM by Kinomescan method relative to control
[18] = target: Myosin light chain kinase 2, skeletal/cardiac muscle (Homo sapiens) (UniProt Q9H1R3); assay: Inhibition of wild-type human partial length SKMLCK (D258 to K570 residues) expressed in bacterial expression system assessed as residual activity at 50 nM by Kinomescan method relative to control
[19] = target: Homeodomain-interacting protein kinase 3 (Homo sapiens) (UniProt Q9H422); assay: Inhibition of wild-type human partial length HIPK3 (M153 to N562 residues) expressed in mammalian expression system assessed as residual activity at 50 nM by Kinomescan method relative to control
[20] = target: Death-associated protein kinase 3 (Homo sapiens) (UniProt O43293); assay: Inhibition of wild-type human partial length DAPK3 (M1 to A277 residues) expressed in bacterial expression system assessed as residual activity at 50 nM by Kinomescan method relative to control
[21] = target: Macrophage-stimulating protein receptor (Homo sapiens) (UniProt Q04912); assay: Inhibition of wild-type human partial length RON (I1057 to L1363 residues) expressed in bacterial expression system assessed as residual activity at 50 nM by Kinomescan method relative to control
[22] = target: Casein kinase I isoform gamma-2 (Homo sapiens) (UniProt P78368); assay: Inhibition of wild-type human full length CK1G2 (M1 to K415 residues) expressed in bacterial expression system assessed as residual activity at 50 nM by Kinomescan method relative to control
[23] = target: Glycogen synthase kinase-3 beta (Homo sapiens) (UniProt P49841); assay: Inhibition of wild-type human full length GSK3B (M1 to T433 residues) expressed in mammalian expression system assessed as residual activity at 50 nM by Kinomescan method relative to control
[24] = target: MAP kinase-activated protein kinase 2 (Homo sapiens) (UniProt P49137); assay: Inhibition of wild-type human partial length MAPKAPK2 (V48 to D345 residues) expressed in bacterial expression system assessed as residual activity at 50 nM by Kinomescan method relative to control
[25] = target: Non-receptor tyrosine-protein kinase TYK2 (Homo sapiens, UniProt P29597); assay: Inhibition of TYK2 (unknown origin) assessed as residual activity at 50 nM by KINOMEscan assay relative to control

Sequence of Cyclin-dependent kinase 15 (Homo sapiens) (Q96Q40 whole entry, the tested form may be a part): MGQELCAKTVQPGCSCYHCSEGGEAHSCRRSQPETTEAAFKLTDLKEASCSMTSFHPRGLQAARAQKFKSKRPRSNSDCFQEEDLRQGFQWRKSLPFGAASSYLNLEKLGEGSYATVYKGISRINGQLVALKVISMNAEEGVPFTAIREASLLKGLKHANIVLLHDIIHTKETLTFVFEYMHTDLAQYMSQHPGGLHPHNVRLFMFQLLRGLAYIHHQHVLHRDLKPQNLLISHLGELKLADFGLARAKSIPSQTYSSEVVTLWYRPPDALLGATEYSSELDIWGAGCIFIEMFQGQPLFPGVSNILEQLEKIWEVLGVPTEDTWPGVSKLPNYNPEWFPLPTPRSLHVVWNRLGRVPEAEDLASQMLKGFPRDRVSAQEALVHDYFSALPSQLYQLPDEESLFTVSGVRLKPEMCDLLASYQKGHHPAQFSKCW
Sequence of Serine/threonine-protein kinase Nek2 (Homo sapiens) (P51955 whole entry, the tested form may be a part): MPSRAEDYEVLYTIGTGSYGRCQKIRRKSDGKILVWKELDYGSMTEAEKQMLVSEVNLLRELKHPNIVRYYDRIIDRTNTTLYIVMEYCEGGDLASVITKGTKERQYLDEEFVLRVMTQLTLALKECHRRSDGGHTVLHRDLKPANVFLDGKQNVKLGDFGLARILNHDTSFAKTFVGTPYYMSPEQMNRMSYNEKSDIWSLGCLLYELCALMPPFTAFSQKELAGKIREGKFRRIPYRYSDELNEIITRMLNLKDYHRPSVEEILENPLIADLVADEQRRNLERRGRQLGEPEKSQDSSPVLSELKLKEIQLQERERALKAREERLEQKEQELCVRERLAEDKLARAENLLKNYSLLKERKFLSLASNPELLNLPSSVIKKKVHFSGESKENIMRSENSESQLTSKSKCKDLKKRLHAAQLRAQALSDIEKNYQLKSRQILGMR
Sequence of Macrophage-stimulating protein receptor (Homo sapiens) (Q04912 25-304 limits assumed): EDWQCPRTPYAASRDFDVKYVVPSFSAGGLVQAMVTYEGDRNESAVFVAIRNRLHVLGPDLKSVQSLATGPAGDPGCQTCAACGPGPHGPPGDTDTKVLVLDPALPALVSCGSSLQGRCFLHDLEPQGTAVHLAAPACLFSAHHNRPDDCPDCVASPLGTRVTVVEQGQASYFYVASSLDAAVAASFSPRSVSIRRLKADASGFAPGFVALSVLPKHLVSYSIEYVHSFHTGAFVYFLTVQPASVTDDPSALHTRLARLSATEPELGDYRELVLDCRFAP
Sequence of Macrophage-stimulating protein receptor (Homo sapiens) (Q04912 310-1400 limits assumed): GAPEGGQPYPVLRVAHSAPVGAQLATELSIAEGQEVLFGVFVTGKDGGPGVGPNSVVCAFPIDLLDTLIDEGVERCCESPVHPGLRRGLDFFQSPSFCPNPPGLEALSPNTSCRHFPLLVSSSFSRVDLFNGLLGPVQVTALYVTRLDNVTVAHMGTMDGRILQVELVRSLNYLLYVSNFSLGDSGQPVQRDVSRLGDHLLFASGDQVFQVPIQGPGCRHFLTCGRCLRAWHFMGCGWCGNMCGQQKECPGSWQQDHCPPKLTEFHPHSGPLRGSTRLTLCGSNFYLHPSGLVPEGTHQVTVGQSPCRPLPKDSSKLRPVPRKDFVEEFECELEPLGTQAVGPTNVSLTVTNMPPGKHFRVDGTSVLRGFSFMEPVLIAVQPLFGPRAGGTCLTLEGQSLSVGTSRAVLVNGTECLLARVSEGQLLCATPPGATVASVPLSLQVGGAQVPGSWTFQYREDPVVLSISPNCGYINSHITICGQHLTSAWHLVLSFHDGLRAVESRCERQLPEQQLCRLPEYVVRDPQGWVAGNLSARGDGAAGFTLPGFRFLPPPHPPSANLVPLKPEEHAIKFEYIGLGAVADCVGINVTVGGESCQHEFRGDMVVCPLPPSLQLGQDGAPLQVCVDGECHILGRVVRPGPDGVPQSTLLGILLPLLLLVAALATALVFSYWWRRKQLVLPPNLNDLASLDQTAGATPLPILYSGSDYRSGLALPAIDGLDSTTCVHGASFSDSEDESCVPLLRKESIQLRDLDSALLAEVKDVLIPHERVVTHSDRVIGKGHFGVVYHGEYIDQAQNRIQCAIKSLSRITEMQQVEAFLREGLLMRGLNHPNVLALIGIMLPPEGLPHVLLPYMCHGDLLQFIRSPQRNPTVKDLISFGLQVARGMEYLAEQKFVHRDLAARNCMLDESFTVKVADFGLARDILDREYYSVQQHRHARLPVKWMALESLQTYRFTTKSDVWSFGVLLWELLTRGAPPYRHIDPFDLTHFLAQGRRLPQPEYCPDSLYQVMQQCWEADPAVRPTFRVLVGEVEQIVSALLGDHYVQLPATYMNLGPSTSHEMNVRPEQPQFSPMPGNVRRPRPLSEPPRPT
Sequence of Serine/threonine-protein kinase Nek1 (Homo sapiens) (Q96PY6 whole entry, the tested form may be a part): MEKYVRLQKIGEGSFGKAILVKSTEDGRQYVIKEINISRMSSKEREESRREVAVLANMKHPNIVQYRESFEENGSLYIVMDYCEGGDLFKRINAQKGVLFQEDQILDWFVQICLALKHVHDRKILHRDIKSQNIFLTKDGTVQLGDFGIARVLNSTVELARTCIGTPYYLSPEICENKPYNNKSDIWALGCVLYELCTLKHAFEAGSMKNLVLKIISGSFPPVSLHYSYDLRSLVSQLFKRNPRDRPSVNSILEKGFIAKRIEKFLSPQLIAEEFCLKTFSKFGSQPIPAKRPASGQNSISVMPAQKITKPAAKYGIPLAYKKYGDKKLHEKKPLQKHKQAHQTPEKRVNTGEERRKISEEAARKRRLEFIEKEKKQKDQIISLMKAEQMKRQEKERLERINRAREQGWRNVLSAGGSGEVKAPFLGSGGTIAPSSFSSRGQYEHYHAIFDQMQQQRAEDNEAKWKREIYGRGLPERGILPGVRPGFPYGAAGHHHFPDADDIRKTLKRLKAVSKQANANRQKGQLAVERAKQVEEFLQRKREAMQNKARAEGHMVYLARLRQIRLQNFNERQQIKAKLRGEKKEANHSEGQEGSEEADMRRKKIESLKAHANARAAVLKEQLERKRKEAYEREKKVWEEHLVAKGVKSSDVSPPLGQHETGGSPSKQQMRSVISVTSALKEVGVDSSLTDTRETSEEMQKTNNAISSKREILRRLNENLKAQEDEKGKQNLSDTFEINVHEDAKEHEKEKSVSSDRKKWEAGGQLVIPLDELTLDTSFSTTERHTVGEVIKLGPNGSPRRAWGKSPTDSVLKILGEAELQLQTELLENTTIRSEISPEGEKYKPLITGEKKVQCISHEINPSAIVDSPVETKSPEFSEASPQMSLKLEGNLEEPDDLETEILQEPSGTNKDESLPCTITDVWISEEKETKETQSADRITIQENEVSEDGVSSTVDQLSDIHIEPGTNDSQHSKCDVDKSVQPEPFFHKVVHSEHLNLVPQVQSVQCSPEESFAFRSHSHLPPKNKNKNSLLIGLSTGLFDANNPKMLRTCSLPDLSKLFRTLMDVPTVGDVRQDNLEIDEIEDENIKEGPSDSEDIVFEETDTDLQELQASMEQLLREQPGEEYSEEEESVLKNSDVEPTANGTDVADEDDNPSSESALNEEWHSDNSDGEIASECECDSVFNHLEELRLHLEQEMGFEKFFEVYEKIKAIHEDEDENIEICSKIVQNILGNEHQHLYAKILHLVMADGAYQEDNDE
Sequence of Bone morphogenetic protein receptor type-1B (Homo sapiens) (O00238 whole entry, the tested form may be a part, canonical isoform): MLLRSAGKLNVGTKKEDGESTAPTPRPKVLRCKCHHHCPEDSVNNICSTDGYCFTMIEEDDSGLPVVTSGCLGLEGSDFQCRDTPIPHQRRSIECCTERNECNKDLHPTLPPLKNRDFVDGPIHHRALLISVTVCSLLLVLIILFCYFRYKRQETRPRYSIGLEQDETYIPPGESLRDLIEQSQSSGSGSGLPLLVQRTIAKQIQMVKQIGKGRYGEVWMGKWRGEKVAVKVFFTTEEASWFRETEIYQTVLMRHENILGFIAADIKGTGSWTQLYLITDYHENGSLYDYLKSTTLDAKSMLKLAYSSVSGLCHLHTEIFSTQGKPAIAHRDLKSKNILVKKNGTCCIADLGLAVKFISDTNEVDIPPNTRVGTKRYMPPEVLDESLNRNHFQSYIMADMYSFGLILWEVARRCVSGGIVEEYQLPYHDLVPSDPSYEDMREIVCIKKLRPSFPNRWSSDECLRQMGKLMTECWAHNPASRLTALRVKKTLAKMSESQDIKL
Sequence of Mitogen-activated protein kinase 11 (Homo sapiens) (Q15759 whole entry, the tested form may be a part): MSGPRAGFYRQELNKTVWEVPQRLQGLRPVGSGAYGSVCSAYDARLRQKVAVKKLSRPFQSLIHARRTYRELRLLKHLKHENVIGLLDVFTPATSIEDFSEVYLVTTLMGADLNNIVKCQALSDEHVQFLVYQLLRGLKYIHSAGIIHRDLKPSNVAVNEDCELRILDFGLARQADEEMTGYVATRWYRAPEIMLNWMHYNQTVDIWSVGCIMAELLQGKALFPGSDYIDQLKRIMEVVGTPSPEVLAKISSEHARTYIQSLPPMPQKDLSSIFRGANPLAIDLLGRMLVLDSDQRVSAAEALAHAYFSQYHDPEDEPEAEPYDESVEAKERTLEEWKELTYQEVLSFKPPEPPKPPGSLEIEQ
Sequence of Dual specificity protein kinase CLK1 (Homo sapiens) (P49759 whole entry, looked up, the tested form may be a part): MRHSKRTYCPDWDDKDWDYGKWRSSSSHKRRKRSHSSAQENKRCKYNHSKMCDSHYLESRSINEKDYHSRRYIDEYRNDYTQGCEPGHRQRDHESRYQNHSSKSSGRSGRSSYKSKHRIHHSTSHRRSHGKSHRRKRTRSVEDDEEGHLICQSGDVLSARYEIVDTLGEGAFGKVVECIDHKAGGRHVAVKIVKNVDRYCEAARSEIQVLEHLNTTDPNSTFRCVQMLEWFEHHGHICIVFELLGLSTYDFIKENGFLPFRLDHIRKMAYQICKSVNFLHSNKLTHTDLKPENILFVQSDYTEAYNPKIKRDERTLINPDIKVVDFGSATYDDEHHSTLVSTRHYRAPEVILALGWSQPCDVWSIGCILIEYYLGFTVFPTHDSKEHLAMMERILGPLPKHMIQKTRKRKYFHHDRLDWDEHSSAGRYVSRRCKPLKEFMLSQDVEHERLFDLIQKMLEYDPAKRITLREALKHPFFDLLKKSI

Compound | Activity [1] [%] | Activity [2] [%] | Activity [3] [%] | Activity [4] [%] | Activity [5] [%] | Activity [6] [%] | Activity [7] [%] | Activity [8] [%] | Activity [9] [%] | Activity [10] [%] | Activity [11] [%] | Activity [12] [%] | Activity [13] [%] | Activity [14] [%] | Activity [15] [%] | Activity [16] [%] | Activity [17] [%] | Activity [18] [%] | Activity [19] [%] | Activity [20] [%] | further results
COc1ccc(-c2cc3c(N[C@@H]4CC[C@](C)(N)C4(C)C)c(C(N)=O)cnn3c2)cn1 | 96 | 100 | 97 | 92 | 95 | 97 | 100 | 100 | 93 | 81 | 90 | 92 | 80 | 85 | 78 | 100 | 100 | 100 | 100 | 97 | Activity [21]: 100%; Activity [22]: 82%; Activity [23]: 86%; Activity [24]: 100%; Activity [25]: 50%
CC1(C)[C@H](Nc2c(C(N)=O)cnn3cc(-c4ccccc4)cc23)CC[C@]1(C)N | 50 | 96 | 100 | 100 | 100 | 75 | 100 | 100 | 72 | 72 | 100 | 96 | 78 | 95 | 82 | 100 | 100 | 90 | 72 | 90 | Activity [21]: 100%; Activity [22]: 100%; Activity [23]: 100%; Activity [24]: 100%; Activity [25]: 50%
